Values after ≈ are worked out from the molar mass of the structure shown. Each block holds one molecule with its values, some of them ahead of it.
Assays:
Experiment in all cases: ≥ marks a high value that may be exact or a test limit, other limits are often not marked, values filed in µg/mL are converted to µM
Escherichia coli DL7 = test system: Escherichia coli DL7
Bacillus subtilis PS832 = test system: Bacillus subtilis PS832
[1] = test system: Klebsiella aerogenes ATCC 13048
[2] = test system: Staphylococcus epidermidis ATCC 12228
[3] = test system: Staphylococcus aureus CCARM 3108
[4] = test system: Staphylococcus aureus CCARM 3126
[5] = test system: Staphylococcus aureus CCARM 3089
[6] = test system: Pseudomonas aeruginosa CCARM 2002
[7] = test system: Staphylococcus aureus KCTC 1916
[8] = test system: Staphylococcus aureus CCARM 3114
[9] = test system: Staphylococcus aureus KCTC 1621
[10] = test system: Salmonella typhimurium CCARM 8003
[11] = test system: Bacillus subtilis KCTC 3068
[12] = test system: Escherichia coli KCTC 2571
[13] = test system: Bacillus subtilis KCTC 1022
[14] = test system: Staphylococcus aureus KCTC 3881
[15] = test system: Escherichia coli CCARM 1229
[16] = test system: Pseudomonas aeruginosa CCARM 2163
[17] = test system: Pseudomonas aeruginosa CCARM 2003
[18] = test system: Bacillus subtilis KCTC 1021
[19] = test system: Pseudomonas aeruginosa KCTC 2004
[20] = test system: Salmonella typhimurium CCARM 8007
[21] = test system: Acinetobacter baumannii CCARM 12005
[22] = test system: Acinetobacter baumannii CCARM 12037
[23] = test system: Acinetobacter baumannii CCARM 12036
[24] = test system: Escherichia coli KCTC 2593
[25] = test system: Staphylococcus aureus CCARM 3090
[26] = test system: Pseudomonas aeruginosa KCTC 2513
[27] = test system: Staphylococcus epidermidis KCTC 1917
[28] = test system: Salmonella typhimurium CCARM 8009
[29] = test system: Pseudomonas aeruginosa KCTC 1637
[30] = test system: Pseudomonas aeruginosa CCARM 2095
[31] = test system: Salmonella typhimurium KCTC 1926
[32] = test system: Acinetobacter baumannii CCARM 12035
[33] = test system: Escherichia coli KCTC 1682
[34] = test system: Escherichia coli CCARM 1238
Streptococcus agalactiae = test system: Streptococcus agalactiae
[35] = test system: Staphylococcus sp. BCRC 10451
[36] = test system: Staphylococcus aureus BCRC 10780
Vibrio alginolyticus = test system: Vibrio alginolyticus
[37] = test system: Vibrio harveyi BCRC 13812
[38] = test system: Staphylococcus aureus ATCC 25023
[39] = test system: Escherichia coli DSM 10233
[40] = test system: Micrococcus luteus DSM 1790
Escherichia coli BL21AI = test system: Escherichia coli BL21AI
[41] = test system: Micrococcus luteus ATCC 10240
[42] = test system: Bacillus subtilis DSM 347

Compound: CC[C@H](C)[C@H](NC(=O)CNC(=O)[C@H](CCCN=C(N)N)NC(=O)[C@H](Cc1ccccc1)NC(=O)[C@@H](NC(=O)[C@H](Cc1cnc[nH]1)NC(=O)[C@H](Cc1cnc[nH]1)NC(=O)[C@H](Cc1ccccc1)NC(=O)[C@@H](N)Cc1ccccc1)[C@@H](C)CC)C(=O)N[C@@H](CCCCN)C(=O)N[C@@H](Cc1cnc[nH]1)C(=O)N[C@H](C(=O)NCC(=O)N[C@@H](CCCCN)C(=O)N[C@H](C(=O)N[C@H](C(=O)N[C@@H](Cc1cnc[nH]1)C(=O)N[C@@H](CCCN=C(N)N)C(=O)N[C@@H](CC(C)C)C(=O)N[C@H](C(=O)N[C@H](C(=O)NCC(=O)O)[C@@H](C)O)C(C)C)[C@@H](C)CC)[C@@H](C)O)C(C)C [FFHHIFRGIKHVGKTIHRLVTG]
MIC [3]: 4 µM (≈ 10.4 µg/mL)
MIC [4]: 4 µM (≈ 10.4 µg/mL)
MIC [5]: 8 µM (≈ 20.8 µg/mL)
MIC [6]: 2 µM (≈ 5.2 µg/mL)
MIC [7]: 2 µM (≈ 5.2 µg/mL)
MIC [8]: 4 µM (≈ 10.4 µg/mL)
MIC [9]: 1 µM (≈ 2.6 µg/mL)
MIC [10]: 8 µM (≈ 20.8 µg/mL)
MIC [11]: 1 µM (≈ 2.6 µg/mL)
MIC [12]: 2 µM (≈ 5.2 µg/mL)
MIC [13]: 2 µM (≈ 5.2 µg/mL)
MIC [14]: 1 µM (≈ 2.6 µg/mL)
MIC [15]: 4 µM (≈ 10.4 µg/mL)
MIC [16]: 2 µM (≈ 5.2 µg/mL)
MIC [17]: 2 µM (≈ 5.2 µg/mL)
MIC [18]: 4 µM (≈ 10.4 µg/mL)
MIC [19]: 2 µM (≈ 5.2 µg/mL)
MIC [20]: 4 µM (≈ 10.4 µg/mL)
MIC [21]: 2 µM (≈ 5.2 µg/mL)
MIC [22]: 2 µM (≈ 5.2 µg/mL)
MIC [23]: 2 µM (≈ 5.2 µg/mL)
MIC [24]: 2 µM (≈ 5.2 µg/mL)
MIC [25]: 8 µM (≈ 20.8 µg/mL)
MIC [26]: 2 µM (≈ 5.2 µg/mL)
MIC [27]: 1 µM (≈ 2.6 µg/mL)
MIC [28]: 4 µM (≈ 10.4 µg/mL)
MIC [29]: 1 µM (≈ 2.6 µg/mL)
MIC [30]: 2 µM (≈ 5.2 µg/mL)
MIC [31]: 1 µM (≈ 2.6 µg/mL)
MIC [32]: 2 µM (≈ 5.2 µg/mL)
MIC [33]: 1 µM (≈ 2.6 µg/mL)
MIC [34]: 4 µM (≈ 10.4 µg/mL)

Compound: CC[C@H](C)[C@H](NC(=O)[C@H](Cc1ccccc1)NC(C)=O)C(=O)N[C@@H](Cc1ccccc1)C(=O)N[C@@H](Cc1cnc[nH]1)C(=O)N[C@H](C(=O)N[C@H](C(=O)N[C@@H](CCCCN)C(=O)NCC(=O)N[C@@H](CC(C)C)C(=O)N[C@@H](Cc1ccccc1)C(=O)N[C@@H](Cc1cnc[nH]1)C(N)=O)[C@@H](C)CC)[C@@H](C)CC [FIFHIIKGLFH]
MIC (Streptococcus agalactiae): ≥ 72.9 µM
MIC [35]: ≥ 72.9 µM
MIC [36]: 4.56 µM (≈ 6.44 µg/mL)
MIC (Vibrio alginolyticus): 4.56 µM (≈ 6.44 µg/mL)
MIC [37]: 4.56 µM (≈ 6.44 µg/mL)

Compound: CC[C@H](C)[C@H](NC(=O)[C@H](CCCN=C(N)N)NC(=O)[C@H](CCCN=C(N)N)NC(=O)[C@@H]1CCCN1C(=O)[C@@H]1CCCN1C(=O)[C@H](CCCN=C(N)N)NC(=O)[C@@H]1CCCN1C(=O)[C@H](CCCN=C(N)N)NC(=O)[C@@H]1CCCN1C(=O)[C@H](CC(C)C)NC(=O)[C@H](Cc1ccc(O)cc1)NC(=O)[C@@H]1CCCN1C(=O)[C@@H]1CCCN1C(=O)[C@H](CCCCN)NC(=O)[C@H](CC(=O)O)NC(=O)[C@@H](N)C(C)C)C(=O)N[C@@H](Cc1ccc(O)cc1)C(=O)N[C@@H](CC(N)=O)C(=O)O [VDKPPYLPRPRPPRRIYN]
MIC [39]: ≥ 55.9 µM
MIC [40]: 6.98 µM (≈ 15.6 µg/mL)
MIC (Escherichia coli BL21AI): 28.6 µM (≈ 64 µg/mL)
MIC [41]: ≥ 57.3 µM
MIC [42]: ≥ 55.9 µM

Further lines, results first:

MIC (Escherichia coli DL7): 16 µM (≈ 37.2 µg/mL)
MIC (Bacillus subtilis PS832): 2 µM (≈ 4.65 µg/mL)
MIC [1]: ≥ 32 µM
MIC [2]: 4 µM (≈ 9.3 µg/mL)
Compound: CC(C)C[C@H](NC(=O)CNC(=O)[C@H](C)NC(=O)[C@H](CCCN=C(N)N)NC(=O)[C@H](Cc1cnc[nH]1)NC(=O)[C@H](C)NC(=O)[C@@H](N)CC(=O)O)C(=O)N[C@@H](CCC(N)=O)C(=O)N[C@@H](Cc1ccccc1)C(=O)N1CCC[C@H]1C(=O)N[C@H](C(=O)NCC(=O)N[C@@H](CCCN=C(N)N)C(=O)N[C@H](C(=O)N[C@@H](Cc1cnc[nH]1)C(=O)N[C@@H](CCCN=C(N)N)C(=O)N[C@@H](CC(C)C)C(=O)N[C@@H](CC(C)C)C(=O)N[C@@H](CCCN=C(N)N)C(=O)N[C@@H](CCCCN)C(N)=O)C(C)C)C(C)C [DAHRAGLQFPVGRVHRLLRK]

MIC [38]: 14.1 µM (≈ 16 µg/mL)
Compound: CC(C)C[C@H](NC(=O)[C@H](CCCN=C(N)N)NC(=O)[C@H](CC(C)C)NC(=O)[C@H](CC(C)C)NC(=O)[C@H](CC(C)C)NC(=O)[C@H](CC(C)C)NC(=O)[C@H](CCCCN)NC(=O)[C@H](CC(C)C)NC(=O)[C@@H](N)CCCN=C(N)N)C(N)=O [RLKLLLLRL]

From DBAASP
